Laboratory results: US5049550A, “Diadenosine 5', 5'"-p^1, p^4,-tetraphosphate analogs as antithrombotic agents” (Worcester Foundation for Experimental Biology, priority 1988, dated 1991)
“Also recorded” adds a separate entry of the source.

How the values were obtained:
[1] = Assay of blood AP4 A and ATP before and after AP4 A infusion in rabbits (in vivo); parameters: species or system rabbit
Description: Male, New Zealand white rabbits, weighing 2-2.5 kg., were anesthetized with ketamine hydrochloride (100 mg/kg intramuscularly). AP4 A (Boehringer (100 Mannheim Biochemicals, Indianapolis, Ind.), or saline control was infused via a marginal ear vein. A segment of the left common carotid artery was isolated by vascular clamps. A 1 cm. length of polyethylene tubing (PE-90, Clay Adams, Parsippany, N.Y.) was inserted, secured by silk ligatures, and the blood flow re-established by removing the clamps. Blood was sampled from the right carotid artery for assays of AP4 A and ATP, and for platelet aggregation studies.
After preliminary trials, a standard AP4 A infusion protocol was established as follows: A dose of AP4 A at 50 mg/kg was reconstituted in 10 ml of normal saline and infused by pump at a uniform rate over two hours. Control rabbits received 10 ml of saline alone. The intracarotid cannula was inserted, and the re-establishment of blood flow timed at 15 minutes into the infusion. Upon the completion of infusion at 2 hours, the intracarotid tubing was removed, and its contents flushed out into a petri dish. The presence of a clot or of liquid blood contents was noted.
(§1) Blood samples were collected from the carotid artery through a catheter before and after (0, 10, 20, 40, and 60 minutes) infusion of AP4 A. Blood was anticoagulated by mixing with 0.15 volume of acid-citrate-dextrose solution. An aliquot of blood collected at the end of AP4 A infusion (to sample) was incubated at 37° C. and sampled at 10, 20, 40, and 60 minutes to evaluate the in vitro decay of AP4 A. Blood samples of […] 3% perchloric acid and kept at 0° C. for 30 minutes with intermittent vortexing. The acid soluble fraction was recovered by centrifugation at 1000 g for 10 minutes and neutralized by 5M K2 CO3. It was then kept at -80° C. until assay of the nucleotides. The AP4 A assay was performed by coupling the phosphodiesterase and luciferase reactions in a luminometer (Model 6100 Picolite, Packard, Downers Grove, Ill.). The detailed method of AP4 A and ATP assays has been reported elsewhere (Kim, B. K., Chao, F. C., Leavitt, R., Fauci, A. S., Meyers, K. M. and Zamecnik, P. C. Blood, 66:735-737, 1985).
(§2) The disappearance of infused AP4 A in the circulation and in incubated blood was studied in 2 rabbits. Mean values of hemoglobin, hematocrit and platelet count were 10.1 g/dl, 30.8% and 362,000/ul respectively. The blood content of AP4 A in the rabbits was 51 nmol/1 blood prior to infusion. […] Kim, B. K. et al., Blood, 66:735-737 (1985); Flodgaard, H., Zamecnik, P. C. Meyers, K. and Klenow, H., Thrombosis Research, 37:345-351 (1986). […] A very rapid disappearance of infused AP4 A was observed, with complete clearance within 10 minutes after infusion. When blood samples obtained at the end of AP4 A infusion were incubated at 37° C., only 15-fold and 4-fold levels of AP4 A, as compared to baseline could be detected after 10 minutes and 20 minutes respectively.

[2] = Decay of AP4 A / ATP in incubated rabbit blood collected at the end of AP4 A infusion (ex vivo); type: in vitro ADME; conditions: for level of AP4 A as compared to baseline: 37° C.
Description: as §1, §2

[3] = in vivo, before infusion of AP4 A

level of ATP after AP4 A infusion ([1]; an initial increment and a late increment): bimodal increments | increase of blood AP4 A at the end of infusion ([1]; end of infusion): 125 fold of baseline | concentration ([1]; end of infusion, 50 mg/kg): 6400 nM | half-life in rabbit blood ([1]; in vivo and ex vivo): short half-life | ATP, umol/l blood ([1]; in vivo, 0 min after infusion of AP4 A (50 mg/kg over 2 h)): 579.0 umol/l blood | ATP, umol/l blood ([1]; in vivo, 10 min after infusion of AP4 A (50 mg/kg over 2 h)): 573.5 umol/l blood | ATP, umol/l blood ([1]; in vivo, 20 min after infusion of AP4 A (50 mg/kg over 2 h)): 564.0 umol/l blood | ATP, umol/l blood ([1]; in vivo, 40 min after infusion of AP4 A (50 mg/kg over 2 h)): 562.0 umol/l blood | ATP, umol/l blood ([1]; in vivo, 60 min after infusion of AP4 A (50 mg/kg over 2 h)): 629.5 umol/l blood | AP4 A, umol/l blood [1, 3]: 0.051 umol/l blood | ATP, umol/l blood [1, 3]: 522.9 umol/l blood | concentration at 0 h ([1]; rabbit, blood, iv, in vivo, 0 min after infusion (50 mg/kg over 2 h), read-out: AP4 A, umol/l blood): 6.41 µmol/L | concentration at 10 min ([1]; rabbit, blood, iv, in vivo, 10 min after infusion (50 mg/kg over 2 h), read-out: AP4 A, umol/l blood): 0.043 µmol/L | concentration at 20 min ([1]; rabbit, blood, iv, in vivo, 20 min after infusion (50 mg/kg over 2 h), read-out: AP4 A, umol/l blood): 0.045 µmol/L | concentration at 40 min ([1]; rabbit, blood, iv, in vivo, 40 min after infusion (50 mg/kg over 2 h), read-out: AP4 A, umol/l blood): 0.05 µmol/L | concentration at 1 h ([1]; rabbit, blood, iv, in vivo, 60 min after infusion (50 mg/kg over 2 h), read-out: AP4 A, umol/l blood): 0.042 µmol/L | time to complete clearance after infusion ([1]; rabbits, after end of infusion): ≤ 10 min | blood content of AP4 A prior to infusion ([1]; rabbits, prior to infusion): 51 nmol/1 blood | blood content of AP4 A: fold lower than the level observed in man ([1]; rabbits, prior to infusion, versus man): 7.3 fold | level of AP4 A as compared to baseline ([2]; ex vivo, after 10 minutes): 15 fold | level of AP4 A as compared to baseline ([2]; ex vivo, after 20 minutes): 4 fold | ATP, umol/l blood ([2]; ex vivo, 10 min at 37° C.): 570.1 umol/l blood | ATP, umol/l blood ([2]; ex vivo, 20 min at 37° C.): 559.3 umol/l blood | ATP, umol/l blood ([2]; ex vivo, 40 min at 37° C.): 551.5 umol/l blood | ATP, umol/l blood ([2]; ex vivo, 60 min at 37° C.): 572.0 umol/l blood | concentration at 10 min ([2]; rabbit, blood, iv, 50 mg/kg, ex vivo, 10 min at 37° C., read-out: AP4 A, umol/l blood): 0.799 µmol/L | concentration at 20 min ([2]; rabbit, blood, iv, 50 mg/kg, ex vivo, 20 min at 37° C., read-out: AP4 A, umol/l blood): 0.21 µmol/L | concentration at 40 min ([2]; rabbit, blood, iv, 50 mg/kg, ex vivo, 40 min at 37° C., read-out: AP4 A, umol/l blood): 0.041 µmol/L | concentration at 1 h ([2]; rabbit, blood, iv, 50 mg/kg, ex vivo, 60 min at 37° C., read-out: AP4 A, umol/l blood): 0.037 µmol/L
Compound: Nc1ncnc2c1ncn2[C@@H]1O[C@H](COP(=O)(O)OP(=O)(O)OP(=O)(O)OP(=O)(O)OC[C@H]2O[C@@H](n3cnc4c(N)ncnc43)[C@H](O)[C@@H]2O)[C@@H](O)[C@H]1O [AP4 A, diadenosine 5',5'"-p^1,p^4 -tetraphosphate]
ex vivo decay compared to in vivo clearance ([2]; rabbit blood): significantly longer; also recorded: slightly longer
